Test results taken from EP0560274B1, “Antiherpes peptide derivatives having a ureido N-terminus” (priority 1992, dated 1993).
Where two headings read alike, the source gives them in different places. *1 amine or outer side, *2 acyl side, *3 side chain or, on linkers, in order; H or OH if unused. Where a SMILES comes first, the peptide text is derived from it. [ ]: non-standard residue; d: D form. The star is where a group is joined. Asp(3,3-(CH2)4) = N[C@H](C(=O)O)C1(C(=O)O)CCCC1; tBuAla = CC(C)(C)C[C@H](N)C(=O)O; Tle = CC(C)(C)[C@H](N)C(=O)O; Pyrrolidide = C1CCN(*)C1; X2 = CC(C)(C)CC(C)(C)N*; CO = O=C([*:1])[*:2]

Test system: Herpes Simplex Virus (HSV-2)
Format: cell-based
Protocol: BHK-21/C13 cells (ATCC CCL 10) are incubated for two days in 150 cm^2 T-flasks (1.5 x 10^6 cells/flask) with alpha-MEM medium (Gibco Canada Inc., Burlington, Ontario, Canada) supplemented with 8% (v/v) fetal bovine serum (FBS, Gibco Canada Inc.). The cells are trypsinized and then transferred to fresh media in a 24 well plate to give 2.5 x 10^5 cells in 750 µL of media per well. The cells are incubated at 37° for a period of 6 h to allow them to adhere to the plate. Thereafter, the cells are washed once with 500 µL of alpha-MEM supplemented with 0.5% (v/v) FBS and then incubated with 750 µL of the same media (low serum) for 3 days. After this period of serum starvation, the low serum medium is removed and the cells are incubated in 500 µL of BBMT for 2 to 3 hours. {BBMT medium is described by P. Brazeau et al., Proc. Natl. Acad. Sci. USA, 79, 7909 (1982).} Thereafter, the cells are infected with HSV-2 (multiplicity of infection = 0.02 PFU/cell) in 100 µL of BBMT medium. (Note: The HSV-2 used was strain HG-52, see Y. Langelier and G. Buttin, J. Gen. Virol., 57, 21 (1981); the virus was stored at -80°.) Following 1 h of virus adsorption at 37°, the media is removed and the cells are washed with BBMT (3 X 250 µL). The cells in each well are incubated with or without (control) appropriate concentrations of the test agent dissolved in 200 µL of BBMT medium. After 29 h of incubation at 37°, the infected cells are harvested by first freezing the plate at -80°, followed by thawing. The cells in each well are scraped off the surface of the well with the help of the melting ice fragments. After complete thawing, the cell suspensions are collected and each well is rinsed with 150 µL of BBMT medium. The viral sample (suspension plus washing) is sonicated gently for 4 min at 4°. Cell debris are removed by centrifugation (1000 times gravity for 10 minutes at 4°). The supernatant is collected and stored at -80° until determination of viral titer.
Viral titration was performed by a modification of the colorimetric assay method of M. Langlois et al., Journal of Biological Standardization, 14, 201 (1986).
More specifically, in a similar manner as described above, BHK-21/C13 cells are trypsinized and transferred to fresh media in a 96 well microtiter plate to give 20,000 cells in 100 µL of media per well. The cells in the prepared plate are incubated at 37° for, 2 h. During that time, the viral sample is thawed and sonicated gently for 15 seconds, and log dilutions of the sample are prepared (1/5 sequential: 50 µL of the sample plus 200 µL of BBMT medium, sequential dilutions being done with a multichannel pipette.
On completion of the above 2 hour incubation of the BHK-21/C13 cells, the media is replaced with alpha-MEM medium supplemented with 3% (v/v) FBS. The cells are now ready to be infected with the various sample dilutions of virus. Aliquots (50 µL) of the various dilutions are transferred into the appropriate wells of the plate. The resulting infected cells are incubated for 2 days at 37°. Then 50 µL of a 0.15% (v/v) solution of neutral red dye in Hank's Balanced Salt Solution (pH 7.3, Gibco Canada Inc.) is added to each well. The prepared plate is incubated for 45 min at 37°. Medium from each well is then aspirated and the cells are washed once with 200 µL of Hank's Balanced Salt Solution. After the wash, the dye is released from the cells by the addition of 100 µL of a 1:1 mixture of 0.1 M Sorensen's citrate buffer (pH 4.2) and ethanol. {Sorensen's citrate buffer is prepared as follows: Firstly, a 0.1 M disodium citrate solution is prepared by dissolving citric acid monohydrate (21 g) in 1 N aqueous NaOH (200 mL) and adding sufficient filtered H2O to make 1 L. Secondly, the 0.1 M disodium citrate solution (61.2 mL) is mixed with 0.1 N aqueous HCl (38.8 mL) and the pH of the resulting solution is adjusted to 4.2 if necessary.} The mixture in the wells is subjected to a gentle vortex action to ensure proper mixing.

SMILES: CCCC(CCC)NC(=O)N[C@H](C(=O)N[C@@H](CC(=O)C(CC)CC)C(=O)N[C@H](C(=O)NCC(C)(C)C)C1(C(=O)O)CCCC1)C(C)(C)C [Pr2CHNHC(O)-Tbg-NHCH(3-ethyl-2-oxopentyl)CO-Asp(cyPn)-NHCH2CMe3]
- EC50 (29 h): 25 µM

SMILES: CCCC(CCC)NC(=O)N[C@H](C(=O)N[C@@H](CC(=O)N1CCCC1)C(=O)N[C@H](C(=O)N[C@H](CO)CC(C)(C)C)C1(C(=O)O)CCCC1)C(C)(C)C [Title Compound of Example 8, Pr2CHNHC(O)-Tbg-Asp(pyrrolidino)-Asp(cyPn)-γMeLeucinol]
- EC50 (29 h): 75 µM

SMILES: CCCC(CCC)NC(=O)N[C@H](C(=O)N[C@@H](CC(=O)C1CCCC1)C(=O)N[C@H](C(=O)NCC(C)(C)C)C1(C(=O)O)CCCC1)C(C)(C)C [Pr2CHNHC(O)-Tbg-NHCH(2-cyclopentyl-2-oxoethyl)C(O)-Asp(cyPn)-NHCH2CMe3]
- EC50 (29 h): 90 µM

SMILES: CC(C)(C)C[C@H](NC(=O)[C@@H](NC(=O)[C@H](CC(=O)N1CCCC1)NC(=O)[C@@H](NC(=O)NC(C)(C)CC(C)(C)C)C(C)(C)C)C1(C(=O)O)CCCC1)C(=O)O [Me3CCH2CMe2NHC(O)-Tbg-Asp(pyrrolidino)-Asp(cyPn)-γMeLeu-OH] ({X2-CO}-[Tle]D(Pyrrolidide)[Asp(3,3-(CH2)4)][tBuAla]-OH)
- EC50 (concentration effecting 50% inhibition of virus replication, BHK-21/C13 cells infected with HSV-2 strain HG-52 (0.02 PFU/cell), 29 h incubation, colorimetric (neutral red) viral titration, read-out: EC50): 110 µM

SMILES: CCC(CC)NC(=O)N[C@H](C(=O)N[C@@H](CC(=O)N1CCCC1)C(=O)N[C@H](C(=O)N[C@H](CO)CC(C)(C)C)C1(C(=O)O)CCCC1)C(C)(C)C [Et2CHNHCO-Tbg-Asp(pyrrolidino)-Asp(cyPn)-γMeLeucinol]
- EC50 (29 h): 170 µM
